Assay [1] can be described thus: Antagonist activity at AR in bicalutamide-resistant human LNCAP cells assessed as effect on cell proliferation after 6 days.
Assay [2] is described as follows: Antagonist activity at AR in human LNCAP cells assessed as effect on cell proliferation after 6 days.

Regarding `CC1(C)C(=O)N(c2ccc(C#N)c(C(F)(F)F)c2)C(=S)N1CCS(N)(=O)=O` [2-[3-(4-Cyano-3-trifluoromethylphenyl)-5,5-dimethyl-4-oxo-2-thioxoimidazolidin-1-yl]ethanesulfonamide], in assay [1], the IC50 (commonly the concentration that gives 50% inhibition) amounted to 79 nM.

Regarding `CC1(C)C(=O)N(c2ccc(C#N)c(Cl)c2)C(=S)N1CCCS(N)(=O)=O` [3-[3-(3-Chloro-4-cyanophenyl)-5,5-dimethyl-4-oxo-2-thioxoimidazolidin-1-yl]propane-1-sulfonamide], the IC50 was 12 nM in assay [1] and 410 nM in assay [2]. Turning to `Cc1c(N2C(=O)C(C)(C)N(CCCS(N)(=O)=O)C2=S)ccc(C#N)c1C(F)(F)F` [3-[3-(4-Cyano-2-methyl-3-trifluoromethylphenyl)-5,5-dimethyl-4-oxo-2-thioxoimidazolidin-1-yl]propane-1-sulfonamide], the IC50 in assay [2] was 1100 nM. With `Cc1cc(N2C(=O)C(C)(C)N(CCCS(N)(=O)=O)C2=S)ccc1C#N` [3-[3-(4-Cyano-3-methylphenyl)-5,5-dimethyl-4-oxo-2-thioxoimidazolidin-1-yl]propane-1-sulfonamide], the results for the IC50 in assay [1] and in assay [2] were 51 nM and 300 nM, respectively.

With `CC1(C)C(=O)N(c2ccc(C#N)c(C(F)(F)F)c2)C(=S)N1CCCS(N)(=O)=O` [3-[3-(4-Cyano-3-trifluoromethylphenyl)-5,5-dimethyl-4-oxo-2-thioxoimidazolidin-1-yl]propane-1-sulfonamide], the IC50 came to 18 nM in assay [1] and 160 nM in assay [2]. Consider `CN(C)S(=O)(=O)CCCN1C(=S)N(c2ccc(C#N)c(C(F)(F)F)c2)C(=O)C1(C)C` [3-[3-(4-Cyano-3-trifluoromethylphenyl)-5,5-dimethyl-4-oxo-2-thioxoimidazolidin-1-yl]propane-1-sulfonic aciddimethylamide], for which the IC50 in assay [2] amounted to 3700 nM.

As for `CNS(=O)(=O)CCCN1C(=S)N(c2ccc(C#N)c(C(F)(F)F)c2)C(=O)C1(C)C` [3-[3-(4-Cyano-3-trifluoromethylphenyl)-5,5-dimethyl-4-oxo-2-thioxoimidazolidin-1-yl]propane-1-sulfonic acidmethylamide], the 50% inhibitory concentration (IC50) turned out to be 30 nM in assay [1] and 190 nM in assay [2]. Taken in the same sequence, the figures for `CC1(C)C(=O)N(c2ccc(C#N)c(C(F)(F)F)c2)C(=S)N1CCCNS(N)(=O)=O` [3-[3-(4-Cyano-3-trifluoromethylphenyl)-5,5-dimethyl-4-oxo-2-thioxoimidazolidin-1-yl]propylsulfamide] were 89 nM and 780 nM. Taken in the same sequence, the figures for `CC1(C)C(=O)N(c2ccc(C#N)c(C(F)(F)F)c2)C(=S)N1CCCNC(N)=O` [3-[3-(4-Cyano-3-trifluoromethylphenyl)-5,5-dimethyl-4-oxo-2-thioxoimidazolidin-1-yl]propylurea] were 200 nM and 1600 nM.

As to `CC1(C)C(=O)N(c2ccc(C#N)c(C(F)(F)F)c2)C(=S)N1CCCCS(N)(=O)=O` [4-[3-(4-Cyano-3-trifluoromethylphenyl)-5,5-dimethyl-4-oxo-2-thioxoimidazolidin-1-yl]butane-1-sulfonamide], the IC50 amounted to 110 nM in assay [1] and 1400 nM in assay [2].

As to `CC1(C)C(=O)N(c2ccc(C#N)c(C(F)(F)F)c2)C(=S)N1CCCC(N)=O` [4-[3-(4-Cyano-3-trifluoromethylphenyl)-5,5-dimethyl-4-oxo-2-thioxoimidazolidin-1-yl]butyramide], the half-inhibitory concentration (IC50) in assay [1] came out at 55 nM; in assay [2], 400 nM. Taken in the same sequence, the figures for `CC1(C)C(=O)N(c2ccc(C#N)c(C(F)(F)F)c2)C(=S)N1CCCC(=O)O` [4-[3-(4-cyano-3-trifluoromethylphenyl)-5,5-dimethyl-4-oxo-2-thioxoimidazolidin-1-yl]butyric acid] were 400 nM and 2000 nM.

Source of the values: BindingDB's records for doi:10.1016/j.bmc.2010.03.036 (Chugai Pharmaceutical, 2010).
